Measurements as given in patent publication US20240082282A1 (priority 2020, published 2024).
Read-outs that look alike come from different tables or passages of the source.

What was measured:
[1] = test system: E. coli ΔtolC-Pore (no efflux, hyperporinated); assay: MIC of E. coli mutant strains
[2] = test system: Borrelia burgdorferi BbP1286
[3] = test system: B. turcica KLEX1; assay: MIC of hygromycin A resistant mutant; assay type: cell-based
[4] = test system: Treponema pallidum; assay: MIC, T. pallidum in co-culture with rabbit Sf1Ep cells
[5] = test system: B. burgdorferi hygromycin A resistant mutant KLEx2; assay: RNAseq of hygromycin A treated vs untreated cells; assay type: cell-based; conditions: for log2 Fold Change: 4 ug/ml hygromycin A vs untreated
[6] = test system: B. burgdorferi B31 KLEX2; assay: MIC of hygromycin A resistant mutant; assay type: cell-based
[7] = test system: HEK293; conditions: HEK293, alamar blue, 72 hours
[8] = test system: FaDu, HepG2 and HEK293-RFP cells; conditions: a number of human cell lines
[9] = test system: E. coli ΔtolC (no efflux); assay: MIC of E. coli mutant strains
[10] = test system: GFP-inducible B. burgdorferi strain pCRW53; assay: Measurement of protein synthesis inhibition (GFP, FACS); assay type: cell-based

## Hygromycin A
[1]
  MIC: 16 µg/mL
[2]; Borrelia burgdorferi BbP1286
  MIC: 0.12 µg
[2]; Borreliella burgdorferi P1286, microaerophilic
  Minimum inhibitory concentration (MIC): 0.12 µg/mL
[3]; B. turcica KLEX1, stable hygromycin A resistance
  MIC: 8 µg/mL
[3]; B. turcica KLEX1 vs parent
  MIC increase as compared to wild type parent strain: 16 fold
[4]
  MIC: 0.03 µg
  Minimum inhibitory concentration (MIC): 0.03 µg/mL
[4]; monitoring spirochetes in co-culture with rabbit cells
  MIC: 0.03 µg/mL
[5]; gene 16S
  log2 Fold Change: −1.80
[5]; gene BBC10
  log2 Fold Change: −8.07
[5]; gene BBC11
  log2 Fold Change: −7.92
[5]; gene BB_0183
  log2 Fold Change: −1.46
[5]; gene BB_0206
  log2 Fold Change: 1.07
[5]; gene BB_0212
  log2 Fold Change: −1.15
[5]; gene BB_0731
  log2 Fold Change: −1.01
[5]; gene BB_0758
  log2 Fold Change: 1.32
[5]; gene BB_0839
  log2 Fold Change: −1.15
[5]; gene BB_0844
  log2 Fold Change: −1.41
[5]; gene BB_A07
  log2 Fold Change: −1.23
[5]; gene BB_A34
  log2 Fold Change: 1.06
[5]; gene BB_B13
  log2 Fold Change: 1.12
[5]; gene BB_H41
  log2 Fold Change: −2.37
[5]; gene BB_I18
  log2 Fold Change: 1.16
[5]; gene BB_J11
  log2 Fold Change: 1.02
[5]; gene BB_J17
  log2 Fold Change: 1.43
[5]; gene BB_J27
  log2 Fold Change: 1.18
[5]; gene BB_J31
  log2 Fold Change: 1.22
[5]; gene BB_J45
  log2 Fold Change: 1.22
[5]; gene BB_K42
  log2 Fold Change: −1.05
[5]; gene BB_L03
  log2 Fold Change: 1.06
[5]; gene BB_N03
  log2 Fold Change: 1.15
[5]; gene BB_N04
  log2 Fold Change: 1.06
[5]; gene BB_O18
  log2 Fold Change: −1.04
[5]; gene BB_P03
  log2 Fold Change: 1.06
[5]; gene BB_U05
  log2 Fold Change: −1.14
[5]; gene bmpD
  log2 Fold Change: −1.67
[5]; gene glpK
  log2 Fold Change: −1.62
[5]; gene tRNA-Cys-1
  log2 Fold Change: −1.17
[5]; transcriptome of hygromycin A treated KLEX2 cells vs untreated
  Decrease in the expression of bmpD: 2.78 fold
[6]; B. burgdorferi B31 KLEX2, stable hygromycin A resistance
  MIC: 4 µg/mL
[6]; B. burgdorferi B31 KLEX2 vs parent
  MIC increase as compared to wild type parent strain: 16 fold
[6]; Hygromycin A resistant B. burgdorferi (HygR) (FIG. 7B)
  MIC: 4 µg/mL
[7]
  IC50: >512 µg/mL
[8]
  EC50 (cytotoxicity): > 512
[9]; E. coli ΔtolC, no efflux
  MIC: 16 µg/mL
[9]; adenosine 2.5-2500 μM, concentration-dependent
  Decrease in MIC on addition of adenosine to E. coli: up to 8 fold
[10]
  GFP level as compared to control (protein synthesis): dramatically lower level of GFP
